Patent US5728736A, “Reduction of hair growth” (priority 1995, dated 1998)

Assays:
[1] = system: hair growth of hamster flank organs; test: Golden Syrian hamster assay (flank organ hair mass after topical application); type: in vivo; settings: for Treated (mg) hair mass: treated flank organ, mean ± SEM; for Percent Inhibition (mean ± SEM) of hair growth: vs vehicle treated side
Source text: Male intact Golden Syrian hamsters are considered acceptable models for human beard hair growth in that they display oval shaped flank organs, one of each side, each about 8 mm. in major diameter, which growth thick black and coarse hair similar to human beard hair. These organs produce hair in response to androgens in the hamster. To evaluate the effectiveness of a particular arginase inhibitor the flank organs of each of a group of hamsters are depilated by applying a thioglycolate based chemical depilatory (Surgex). To one organ of each animal 10 μl of vehicle alone once a day is applied, while to the other organ of each animal an equal amount of vehicle containing an arginase inhibitor is applied. After thirteen applications (one application per day for five days a week), the flank organs are shaved and the amount of recovered hair (hair mass) from each is weighed. Percent-reduction of hair growth is calculated by subtracting the hair mass (mg) value of the test compound treated side from the hair mass value of the vehicle treated side; the delta value obtained is then divided by the hair mass value of the vehicle treated side, and the resultant number is multiplied by 100.
The above-described assay will be referred to herein as the "Golden Syrian hamster" assay.

hair follicle arginase = test: In vitro assay for inhibitors of hair follicle arginase; type: biochemical; settings: compound 10 μM, hamster flank organ hair follicle extract, 5 minutes at 37° C., ornithine formation by HPLC
Experimental: Extracts of hair follicles were obtained by excising and sonicating hair follicles obtained from hamster flank organs. The hair follicles from the hamster flank organ were excised and sonicated in a 0.01M Tris-buffered solution, pH 7.5. The sonicated extracts were centrifuged at 12,000×g, and the supernatant was used to measure arginase activity. Final reaction volumes were achieved by using 90 μl of the follicle supernatant, which was mixed with 100 μl of the Tris buffer (with or without the inhibitor), and 10 μl of 20 mM arginine incubated for 5 minutes at 37° C. The enzyme reaction was stopped by separating the enzyme from the substrate with a 10,000 molecular weight cut off filter. The product formed, ornithine, was separated from the substrate arginine using reverse phase HPLC methodology. An aliquot of the reaction was used to generate 20 μl of the filtrate which was reacted with 20 μl of O-pthalaldehyde (OPA) reagent. This reagent rapidly reacts with all primary amino acids to form fluorescent adducts that are separated on a C18 column (15 cm×3.9 mm). The 40 μl of derivatized sample is injected into the HPLC column and eluted with a stepwise gradient starting at 100% Buffer A (0.024M sodium acetate, 0.024M sodium phosphate, pH 4.0/methanol/tetrahydrofuran in a ratio of 81:15:4) and ending in a 50/50 mixture of Buffer A and Buffer B (methanol/water/tetrahydrofuran in a ratio of 75:15:10). A fluorescent detector was used to monitor the amino acid peaks as they eluted off the column.

[2] = dose 10%, vehicle H2O, 13 applications
[3] = dose 10%, vehicle A, pH 6.5, 13 applications
[4] = dose 10%, vehicle A, pH not given, 13 applications
[5] = dose 10%, vehicle B, pH 7.0, 13 applications
[6] = dose 7.5%, vehicle A, pH 3.5, 13 applications

CC(C)(N)C(=O)O [α-Aminoisobutyric acid]
Treated (mg) hair mass [1, 2]: 1.96 ± 2.1 mg
Percent Inhibition (mean ± SEM) of hair growth [1, 2]: 34 ± 9
% Inhibition of hair follicle arginase (hair follicle arginase): 27%

CCN=C=NCCCN(C)C [1-Ethyl-3-(3-dimethylaminopropyl)-carbodiimide]
Treated (mg) hair mass [1, 3]: 0.9 ± 0.9 mg
Percent Inhibition (mean ± SEM) of hair growth [1, 3]: 57 ± 5
% Inhibition of hair follicle arginase (hair follicle arginase): 64%

N=C(NO)NCCC[C@H](N)C(=O)O [N^-G -Hydroxy-L-arginine]
Treated (mg) hair mass [1, 4]: 0.97 ± .19 mg
Percent Inhibition (mean ± SEM) of hair growth [1, 4]: 66 ± 6
% Inhibition of hair follicle arginase (hair follicle arginase): 98%

CC(NC(CCCNC(=N)N)C(=O)O)C(=O)O (stereo not drawn) [Octopine]
Treated (mg) hair mass [1, 5]: 0.45 ± .07 mg
Percent Inhibition (mean ± SEM) of hair growth [1, 5]: 68 ± 6
% Inhibition of hair follicle arginase (hair follicle arginase): 50%

Cc1ccc(S(=O)(=O)N[C@@H](CCCNC(=N)N)C(=O)O)cc1 [N-Tosyl-L-arginine]
Treated (mg) hair mass [1, 6]: 0.83 ± .13 mg
Percent Inhibition (mean ± SEM) of hair growth [1, 6]: 42 ± 13
% Inhibition of hair follicle arginase (hair follicle arginase): 64%
